# Measurements from patent US10336765B2, “Dihydropyranopyrimidinone derivatives, and use thereof” (St Pharm Co., LTD, priority 2015, dated 2019).
# Target: T1, tankyrase 1 (Homo sapiens, UniProt O95271)
# T1 construct: purchased Trevigen 4700-096-K
# T1 sequence (O95271 1-1327): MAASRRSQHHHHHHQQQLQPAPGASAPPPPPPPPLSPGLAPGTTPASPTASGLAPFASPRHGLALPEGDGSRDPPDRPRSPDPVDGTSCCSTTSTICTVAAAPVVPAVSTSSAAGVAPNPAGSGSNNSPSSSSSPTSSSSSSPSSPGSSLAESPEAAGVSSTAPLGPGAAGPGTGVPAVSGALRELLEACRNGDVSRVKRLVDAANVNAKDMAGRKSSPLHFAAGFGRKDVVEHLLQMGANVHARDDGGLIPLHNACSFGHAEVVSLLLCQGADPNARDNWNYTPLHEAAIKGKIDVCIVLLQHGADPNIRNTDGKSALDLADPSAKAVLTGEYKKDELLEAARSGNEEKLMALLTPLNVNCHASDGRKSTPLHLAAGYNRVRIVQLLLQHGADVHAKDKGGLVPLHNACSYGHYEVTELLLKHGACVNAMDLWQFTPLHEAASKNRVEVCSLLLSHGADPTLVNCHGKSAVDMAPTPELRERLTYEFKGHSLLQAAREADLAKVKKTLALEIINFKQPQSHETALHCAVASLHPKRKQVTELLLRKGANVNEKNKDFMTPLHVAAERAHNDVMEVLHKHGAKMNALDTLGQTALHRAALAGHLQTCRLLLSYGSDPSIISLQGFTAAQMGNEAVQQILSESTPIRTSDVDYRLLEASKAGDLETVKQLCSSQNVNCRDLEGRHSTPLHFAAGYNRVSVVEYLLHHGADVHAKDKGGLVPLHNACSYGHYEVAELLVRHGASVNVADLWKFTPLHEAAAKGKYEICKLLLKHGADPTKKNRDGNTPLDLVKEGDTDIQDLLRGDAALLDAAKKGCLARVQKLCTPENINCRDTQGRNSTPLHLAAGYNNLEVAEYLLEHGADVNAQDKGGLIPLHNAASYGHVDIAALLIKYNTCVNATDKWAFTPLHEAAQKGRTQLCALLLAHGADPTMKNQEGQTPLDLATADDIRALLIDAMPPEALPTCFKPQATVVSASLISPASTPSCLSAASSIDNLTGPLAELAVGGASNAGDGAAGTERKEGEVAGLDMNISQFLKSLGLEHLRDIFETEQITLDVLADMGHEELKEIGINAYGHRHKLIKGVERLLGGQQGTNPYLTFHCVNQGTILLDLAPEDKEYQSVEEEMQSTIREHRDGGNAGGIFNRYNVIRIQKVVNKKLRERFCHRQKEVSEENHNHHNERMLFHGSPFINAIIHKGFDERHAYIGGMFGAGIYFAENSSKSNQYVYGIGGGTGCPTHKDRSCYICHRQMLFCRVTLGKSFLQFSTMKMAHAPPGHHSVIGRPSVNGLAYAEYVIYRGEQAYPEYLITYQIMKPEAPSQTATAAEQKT
# Assay: Analysis of activity of tankyrase 1 (Trevigen kit, ELISA absorbance at 450 nm)
# Format: biochemical
# Conditions: not given
# Description: Activities of novel compounds synthesized according to Examples 1 to 13 against tankyrase 1 were analyzed using a Trevigen kit (Cat. No. 4700-096-K). Poly PAR histone protein-coated 96-well plate, anti-PAR monoclonal antibody and goat anti-mouse IgG-HRP were used for measurement of absorbance by ELISA method. Specifically, 20×I-PAR assay buffer was diluted to 1× by adding water, and 50 μL of the diluted buffer was added to each well of the 96-well plate followed by reacting at rt for 30 min. Then, the supernatant was completely removed from each well and 10 μL of 1×I-PAR assay buffer and 15 μL of assay substrate were added to each well along with 1 μL of a 50× solution of inhibitors to be tested, which were the compounds obtained in the Examples 1 to 13. 10 mUnits/μL of tankyrase 1 enzyme was diluted 50-fold with 1×I-PAR assay buffer and 25 μL of the diluted enzyme was added to each well and reacted while stirring at rt for 30 min. One without any compound of the present invention was used as a positive control and another containing 1×I-PAR assay buffer with the same volume instead of tankyrase 1 enzyme was used as a negative control.
# Upon completion of the reaction, 200 μL of PBSX, which was prepared by adding 0.1% triton X-100 to PBS, was added and removed and this washing process was repeated twice. Washing was repeated twice more using PBS in the same manner. 5× antibody diluent was diluted with distilled water to 1× concentration, 50 μL of the diluted goat anti-mouse IgG-HRP to 1/2000 was added to each well and reacted while stirring at rt for 30 min. Washes were carried out twice using PBSX and PBS, respectively. After adding 50 μL of TACS-sapphire to each well of the plate, the plate was blocked from light to react for 10 min to 15 min and the color of the reaction solution turned blue. To stop the reaction, 50 μL of 0.2N HCl was added to turn the solution yellow. Finally, the absorbance of the resulting solution was measured at 450 nm.
row,IC50 [nM],SMILES
1,27.2,"COCCOc1cc(F)c(N2CCN(c3nc4c(c(=O)[nH]3)COCC4)CC2)c(F)c1 [Example 1, 2-(4-(2,6-difluoro-4-(2-methoxyethoxy)phenyl)piperazin-1-yl)-7,8-dihydro-3H-pyrano[4,3-d]pyrimidin-4(5H)-one]"

# Same assay, conditions: Trevigen kit Cat. No. 4700-096-K; reacted at rt for 30 min; absorbance at 450 nm; read-out: TNKS1 (IC50)
row,IC50 [nM],SMILES
1,40.6,"O=c1[nH]c(N2CCN(c3c(F)cc(OCCN4CCOCC4)cc3F)CC2)nc2c1COCC2 [Example 2, 2-(4-(2,6-difluoro-4-(2-morpholinoethoxy)phenyl)piperazin-1-yl)-7,8-dihydro-3H-pyrano[4,3-d]pyrimidin-4(5H)-one]"
2,40.3,"O=c1[nH]c(N2CCN(c3c(F)cc(OCCN4CCCCC4)cc3F)CC2)nc2c1COCC2 [Example 3, 2-(4-(2,6-difluoro-4-(2-(piperidin-1-yl)ethoxy)phenyl)piperazin-1-yl)-7,8-dihydro-3H-pyrano[4,3-d]pyrimidin-4(5H)-one]"
3,26.6,"O=c1[nH]c(N2CCN(c3c(F)cc(OCCO)cc3F)CC2)nc2c1COCC2 [Example 4, 2-(4-(2,6-difluoro-4-(2-hydroxyethoxy)phenyl)piperazin-1-yl)-7,8-dihydro-3H-pyrano[4,3-d]pyrimidin-4(5H)-one]"
4,26.1,"O=c1[nH]c(N2CCN(c3c(F)cc(OCC(O)CO)cc3F)CC2)nc2c1COCC2 (stereo not shown) [Example 5, 2-(4-(4-(2,3-dihydroxypropoxy)-2,6-difluorophenyl)piperazin-1-yl)-7,8-dihydro-3H-pyrano[4,3-d]pyrimidin-4(5H)-one]"
5,36.8,"CN1CCN(Cc2cc(F)c(N3CCN(c4nc5c(c(=O)[nH]4)COCC5)CC3)c(F)c2)CC1 [Example 6, 2-(4-(2,6-difluoro-4-((4-methylpiperazin-1-yl)methyl)phenyl)piperazin-1-yl)-7,8-dihydro-3H-pyrano[4,3-d]pyrimidin-4(5H)-one]"
6,21.8,"CC(O)c1cc(F)c(N2CCN(c3nc4c(c(=O)[nH]3)COCC4)CC2)c(F)c1 (stereo not shown) [Example 7, 2-(4-(2,6-difluoro-4-(1-hydroxyethyl)phenyl)piperazin-1-yl)-7,8-dihydro-3H-pyrano[4,3-d]pyrimidin-4(5H)-one]"
7,162,"COCCOc1cc(F)c(C2(O)CCN(c3nc4c(c(=O)[nH]3)COCC4)CC2)c(F)c1 [Example 8, 2-(4-(2,6-difluoro-4-(2-methoxyethoxy)phenyl)-4-hydroxypiperidin-1-yl)-7,8-dihydro-3H-pyrano[4,3-d]pyrimidin-4(5H)-one]"
8,803,"Cn1nnc(C2CCN(c3nc4c(c(=O)[nH]3)COCC4)CC2)n1 [Example 9, 2-(4-(2-methyl-2H-tetrazol-5-yl)piperidin-1-yl)-7,8-dihydro-3H-pyrano[4,3-d]pyrimidin-4(5H)-one]"
9,34.2,"O=C(COc1cc(F)c(N2CCN(c3nc4c(c(=O)[nH]3)COCC4)CC2)c(F)c1)N1CCCCC1 [Example 10, 2-(4-(2,6-difluoro-4-(2-oxo-2-(piperidin-1-yl)ethoxy)phenyl)piperazin-1-yl)-7,8-dihydro-3H-pyrano[4,3-d]pyrimidin-4(5H)-one]"
10,74.4,"COCCOc1cc(F)c(C2CCN(c3nc4c(c(=O)[nH]3)COCC4)CC2)c(F)c1 [Example 11, 2-(4-(2,6-difluoro-4-(2-methoxyethoxy)phenyl)piperidin-1-yl)-7,8-dihydro-3H-pyrano[4,3-d]pyrimidin-4(5H)-one]"
11,33.6,"CCN(CC)CCOc1cc(F)c(N2CCN(c3nc4c(c(=O)[nH]3)COCC4)CC2)c(F)c1 [Example 12, 2-(4-(4-(2-(diethylamino)ethoxy)-2,6-difluorophenyl)piperazin-1-yl)-7,8-dihydro-3H-pyrano[4,3-d]pyrimidin-4(5H)-one]"
12,25.4,"O=c1[nH]c(N2CCN(c3c(F)cc(OCCn4ccnc4)cc3F)CC2)nc2c1COCC2 [Example 13, 2-(4-(4-(2-(1H-imidazol-1-yl)ethoxy)-2,6-difluorophenyl)piperazin-1-yl)-7,8-dihydro-3H-pyrano[4,3-d]pyrimidin-4(5H)-one]"
